Measured values taken from patent publication US9708336B2, “Metallo-beta-lactamase inhibitors” (priority 2014, dated 2017).
Read-outs that look alike come from different tables or passages of the source.

Assays:
NDM-1 = NDM-1 (Klebsiella pneumoniae, UniProt C7C422); experiment: biochemical; format: biochemical; settings: read-out: NDM-1 IC50
IMP-1 = IMP-1 (Serratia marcescens, UniProt P52699); experiment: biochemical; format: biochemical; settings: read-out: IMP-1 IC50
VIM-1 = VIM-1 (Pseudomonas aeruginosa (strain ATCC 15692 / DSM 22644 / CIP 104116 / JCM 14847 / LMG 12228 / 1C / PRS 101 / PAO1), UniProt A0A0F7KYQ8); experiment: Enzyme activity: determination of IC50, fluorescence assay with CCF2-FA substrate (VIM-1); format: biochemical
[1] = system: Escherichia coli expressing NDM-1 (CLB30016); experiment: Antibiotic potentiation activity: synergistic concentration (MITC95) with imipenem, OD600 growth; format: cell-based; settings: for Escherichia coli expressing NDM-1 (CLB 30016) MITC95: concentration giving 95% inhibition of bacterial growth
Procedure, shortened: (§1)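 CLB30005 was precultured on Mueller Hinton agar with 8 ug/ml imipenem, the other strains on trypticase soy agar with 5% sheep blood, overnight at 35 °C. Saline suspensions diluted 1:100 in 1.1× CAMHB received compound and 4 μg/ml imipenem, then 22–24 h at 35 °C before absorbance reading.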

[2] = system: Klebsiella pneumoniae expressing VIM-1 (IHMA599644); experiment: as above; format: cell-based; settings: for Klebsiella pneumoniae expressing VIM-1 (IHMA 599644) MITC95: concentration giving 95% inhibition of bacterial growth
Procedure, shortened: as §1

[3] = system: Serratia marcescens expressing IMP-1 (CL5741); experiment: as above; format: cell-based; settings: for Serratia marcescens expressing IMP-1 (CL5741) MITC95: concentration giving 95% inhibition of bacterial growth
Procedure, shortened: as §1

[4] = NDM-1 enzyme, CCF2-FA fluorescence assay
[5] = IMP-1 enzyme, CCF2-FA fluorescence assay
[6] = VIM-1 IC50, VIM-1 enzyme, CCF2-FA fluorescence assay
[7] = Escherichia coli expressing NDM-1 (CLB30016), 95% growth inhibition
[8] = Klebsiella pneumoniae expressing VIM-1 (IHMA599644), 95% growth inhibition
[9] = Serratia marcescens expressing IMP-1 (CL5741), 95% growth inhibition
[10] = fluorescence assay with CCF2-FA substrate
[11] = fluorescence assay with CCF2-FA substrate, read-out: VIM-1 IC50
[12] = CLB30016 (NDM-1), 95% inhibition of bacterial growth
[13] = IHMA599644 (VIM-1), 95% inhibition of bacterial growth
[14] = CL5741 (IMP-1), 95% inhibition of bacterial growth
[15] = VIM-1 enzyme, CCF2-FA fluorescence assay, read-out: VIM-1 IC50
[16] = NDM-1 enzyme, CCF2-FA substrate
[17] = IMP-1 enzyme, CCF2-FA substrate
[18] = (CLB30016, NDM-1), 95% growth inhibition
[19] = Klebsiella pneumoniae IHMA599644 (VIM-1), 95% growth inhibition
[20] = Serratia marcescens CL5741 (IMP-1), 95% growth inhibition
[21] = VIM-1 enzyme, CCF2-FA substrate, read-out: VIM-1 IC50

IMP-1, sequence (P52699 whole entry, looked up): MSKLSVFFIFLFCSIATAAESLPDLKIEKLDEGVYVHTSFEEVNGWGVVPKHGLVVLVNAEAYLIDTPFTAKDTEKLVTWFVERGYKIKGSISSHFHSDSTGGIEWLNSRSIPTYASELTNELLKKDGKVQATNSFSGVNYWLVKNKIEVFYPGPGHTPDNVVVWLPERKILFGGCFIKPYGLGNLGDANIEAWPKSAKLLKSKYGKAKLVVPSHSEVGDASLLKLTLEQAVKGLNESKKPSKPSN
NDM-1, sequence (C7C422 whole entry, looked up, species assumed): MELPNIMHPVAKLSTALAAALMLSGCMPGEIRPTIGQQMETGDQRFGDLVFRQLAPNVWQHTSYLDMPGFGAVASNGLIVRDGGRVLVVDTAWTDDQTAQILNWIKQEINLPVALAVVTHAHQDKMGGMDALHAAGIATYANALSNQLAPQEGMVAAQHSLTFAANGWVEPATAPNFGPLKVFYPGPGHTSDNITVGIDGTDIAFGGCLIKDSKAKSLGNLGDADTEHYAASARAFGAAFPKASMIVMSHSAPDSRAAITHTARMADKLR

| Structure (SMILES) | IC50 (NDM-1; [4]) | IC50 (IMP-1; [5]) | Escherichia coli MITC95 [1, 7] | Klebsiella pneumoniae MITC95 [2, 8] | Serratia marcescens MITC95 [3, 9] | IC50 (NDM-1; [10]) | IC50 (IMP-1; [10]) | IC50 (VIM-1; [15]) | further results |
| --- | --- | --- | --- | --- | --- | --- | --- | --- | --- |
| NS(=O)(=O)c1cccc(-c2ccc(CNC3CCNC3=O)cc2)c1-c1nnn[nH]1 (stereo not drawn) [Example 388, 4′-{[(2-oxopyrrolidin-3-yl)amino]methyl}-2-(1H-tetrazol-5-yl)biphenyl-3-sulfonamide] | 4.28 nM | 48.6 nM | 1.563 µM | 200 µM | 1.563 µM | – | – | – | IC50 (VIM-1; [6]): 273 nM |
| NS(=O)(=O)c1c(C(F)(F)F)ccc([C@H]2CC[C@H](N)CC2)c1-c1nnn[nH]1 [Example 820, 3-((1r,4r)-4-aminocyclohexyl)-2-(1H-tetrazol-5-yl)-6-(trifluoromethyl)benzenesulfonamide] | – | – | – | – | – | 13.5 nM | 39.4 nM | – | IC50 (VIM-1; [11]): 0.659 nM; Escherichia coli MITC95 [1, 12]: 0.3906 µM; Klebsiella pneumoniae MITC95 [2, 13]: 0.7813 µM; Serratia marcescens MITC95 [3, 14]: 0.7813 µM |
| NS(=O)(=O)c1cccc(CCc2ccccn2)c1-c1nnn[nH]1 [Example 144, 3-(2-pyridin-2-ylethyl)-2-(1H-tetrazol-5-yl)benzenesulfonamide] | – | – | – | – | – | 121 nM | 4500 nM | – | IC50 (VIM-1; [11]): 1540 nM; Escherichia coli expressing NDM-1 (CLB 30016) MITC95 [1]: 3.125 µM; Klebsiella pneumoniae expressing VIM-1 (IHMA 599644) MITC95 [2]: >200 µM; Serratia marcescens expressing IMP-1 (CL5741) MITC95 [3]: 200 µM |
| NS(=O)(=O)c1c(C(F)(F)F)ccc(N2CCC3(CCNCC3)C2)c1-c1nnn[nH]1 [Example 771, 3-(2,8-diazaspiro[4.5]dec-2-yl)-2-(1H-tetrazol-5-yl)-6-(trifluoromethyl) benzenesulfonamide] | – | – | – | – | – | 30.7 nM | 227 nM | – | IC50 (VIM-1; [11]): 22.9 nM; Escherichia coli MITC95 [1, 12]: 25 µM; Klebsiella pneumoniae MITC95 [2, 13]: 50 µM; Serratia marcescens MITC95 [3, 14]: 50 µM |
| NS(=O)(=O)c1cccc(-c2ccc(CNCCn3nccn3)cc2)c1-c1nnn[nH]1 [Example 383, 2-(1H-tetrazol-5-yl)-4′-({[2-(2H-1,2,3-triazol-2-yl)ethyl]amino}methyl)biphenyl-3-sulfonamide] | 4.66 nM | 51.6 nM | 1.563 µM | 200 µM | 1.563 µM | – | – | 269 nM | – |
| NC(=O)CNCc1ccc(-c2cccc(S(N)(=O)=O)c2-c2nnn[nH]2)cc1 [Example 340, 2-(((3′-sulfamoyl-2′-(1H-tetrazol-5-yl)-[1,1′-biphenyl]-4-yl)methyl)amino)acetamide] | 5.14 nM | 90.2 nM | 0.3906 µM | 25 µM | 1.563 µM | – | – | 158 nM | – |
| NC(=O)C1CCN(Cc2ccc(-c3cccc(S(N)(=O)=O)c3-c3nnn[nH]3)cc2)C1 (stereo not drawn) [Example 337, 1-((3′-sulfamoyl-2′-(1H-tetrazol-5-yl)-[1,1′-biphenyl]-4-yl)methyl)pyrrolidine-3-carboxamide] | 4.38 nM | 69.8 nM | 0.3906 µM | 75 µM | 2.344 µM | – | – | 321 nM | – |
| NC1CCC(N2CCC(c3ccc(-c4ccc(C(F)(F)F)c(S(N)(=O)=O)c4-c4nnn[nH]4)cc3)CC2)CC1 (stereo not drawn) [Example 794, 4′-[1-(4-aminocyclohexyl)piperidin-4-yl]-2-(1H-tetrazol-5-yl)-4-(trifluoromethyl)biphenyl-3-sulfonamide] | – | – | – | – | – | 6.44 nM | 1.76 nM | – | IC50 (VIM-1; [11]): 11 nM; Escherichia coli MITC95 [1, 12]: 1.563 µM; Klebsiella pneumoniae MITC95 [2, 13]: 50 µM; Serratia marcescens MITC95 [3, 14]: 3.125 µM |
| NS(=O)(=O)c1c(C(F)(F)F)ccc([C@H]2CC[C@H](NC3CC4CNCCN4C3)CC2)c1-c1nnn[nH]1 (stereo partly drawn) [Example 686, 3-[4-(octahydropyrrolo[1,2-a]pyrazin-7-ylamino)cyclohexyl]-2-(1H-tetrazol-5-yl)-6-(trifluoromethyl)benzene sulfonamide] | – | – | – | – | – | – | – | – | IC50 (NDM-1; [16]): 9.53 nM; IC50 (IMP-1; [17]): 31.7 nM; IC50 (VIM-1; VIM-1 IC50, VIM-1 enzyme, CCF2-FA substrate): 15.7 nM; Escherichia coli MITC95 [1, 18]: 1.563 µM; Klebsiella pneumoniae MITC95 [2, 19]: 12.5 µM; Serratia marcescens MITC95 [3, 20]: 6.25 µM |
| NS(=O)(=O)c1c(C(F)(F)F)ccc(-c2snc3ncccc23)c1-c1nnn[nH]1 [Example 709, 3-isothiazolo[3,4-b]pyridin-3-yl-2-(1H-tetrazol-5-yl)-6-(trifluoromethyl)benzenesulfon-amide] | – | – | – | – | – | – | – | – | IC50 (NDM-1; [16]): 6.58 nM; IC50 (IMP-1; [17]): 16.4 nM; IC50 (VIM-1; [21]): 0.289 nM; Escherichia coli MITC95 [1, 18]: 6.25 µM; Klebsiella pneumoniae MITC95 [2, 19]: 6.25 µM; Serratia marcescens MITC95 [3, 20]: 25 µM |
| Nc1ccnc2ccc(-c3cccc(S(N)(=O)=O)c3-c3nnn[nH]3)cc12 [Example 401, 3-(4-amino-6-quinolyl)-2-(1H-tetrazol-5-yl)benzenesulfonamide] | 7.31 nM | 646 nM | 0.09375 µM | 0.8906 µM | 6.25 µM | – | – | – | IC50 (VIM-1; [6]): 7.57 nM |
| NC(=O)Cc1ccc(-c2ccc(C(F)(F)F)c(S(N)(=O)=O)c2-c2nn[nH]n2)cc1 [Example 448, 2-(3′-sulfamoyl-2′-(2H-tetrazol-5-yl)-4′-(trifluoromethyl)-[1,1′-biphenyl]-4-yl)acetamide] | 2.1 nM | 2.17 nM | 3.125 µM | 6.25 µM | 0.1953 µM | – | – | 0.962 nM | – |
| NS(=O)(=O)c1cccc(-c2ccc(CNCCc3cc[nH]n3)cc2)c1-c1nnn[nH]1 [Example 389, 4′-({[2-(1H-pyrazol-3-yl)ethyl]amino}methyl)-2-(1H-tetrazol-5-yl)biphenyl-3-sulfonamide] | 3.33 nM | 64 nM | 1.563 µM | 75 µM | 2.344 µM | – | – | 146 nM | – |
| Nc1nnc(C2CCN(c3ccnc(S(N)(=O)=O)c3-c3nnn[nH]3)CC2)s1 [Example 216, 4-[4-(5-amino-1,3,4-thiadiazol-2-yl)piperidin-1-yl]-3-(1H-tetrazol-5-yl)pyridine-2-sulfonamide] | – | – | – | – | – | 40.4 nM | 456 nM | – | IC50 (VIM-1; VIM-1 IC50, fluorescence assay with CCF2-FA substrate): 96.7 nM; Escherichia coli expressing NDM-1 (CLB 30016) MITC95 [1]: 1.172 µM; Klebsiella pneumoniae expressing VIM-1 (IHMA 599644) MITC95 [2]: 18.75 µM; Serratia marcescens expressing IMP-1 (CL5741) MITC95 [3]: 12.5 µM |
| NS(=O)(=O)c1cccc(-c2ccc(CN3CC[C@H](CO)C3)cc2)c1-c1nnn[nH]1 [Example 392, 4′-{[(3S)-3-(hydroxymethyl)pyrrolidin-l-yl]methyl}-2-(1H-tetrazol-5-yl)biphenyl-3-sulfonamide] | 7.88 nM | 394 nM | 2.344 µM | 75 µM | 3.125 µM | – | – | – | IC50 (VIM-1; [6]): 455 nM |
| NS(=O)(=O)c1c(CC2CCNCC2)ccc(-c2ccc(C3CNC3)cc2)c1-c1nnn[nH]1 [Example 597, 3-[4-(azetidin-3-yl)phenyl]-6-(4-piperidylmethyl)-2-(1H-tetrazol-5-yl)benzenesulfonamide] | – | – | – | – | – | – | – | – | IC50 (NDM-1; [16]): 8.86 nM; IC50 (IMP-1; [17]): 46 nM; IC50 (VIM-1; [21]): 1.24 nM; Escherichia coli MITC95 [1, 18]: 1.563 µM; Klebsiella pneumoniae MITC95 [2, 19]: 1.563 µM; Serratia marcescens MITC95 [3, 20]: 3.125 µM |
